From US9783505B2, “Substituted diaminopyrimidyl compounds, compositions thereof, and methods of treatment therewith” (Signal Pharmaceuticals, LLC, priority 2013, dated 2017)
pIC50: −log10 of the molar value.

Experiments:
His-PKC-theta = molecular target: T1, His-PKC-theta (Homo sapiens, UniProt Q04759); assay: PKC-theta Assay (384-well time resolved fluorescence, IMAP TR-FRET); format: biochemical; settings: read-out: Act. Level (IC50 in the PKC-theta Assay)
T1 construct: His; purchased Invitrogen
In short: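 Enzyme at 142 pM phosphorylated 200 nM Fam-S6 peptide with 10 μM ATP in 50 mM HEPES pH 7.6, 10 mM MgCl2, 1 mM DTT for 2 h at room temperature. Product was detected after overnight incubation with IMAP binding reagent and Tb donor by time-resolved FRET.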

PKC delta = molecular target: T2, PKC delta (Homo sapiens, UniProt Q05655); assay: PKC delta Assay (384-well time resolved fluorescence, IMAP TR-FRET); format: biochemical; settings: selectivity for PKC-theta over PKC-delta
T2 construct: purchased Invitrogen
In short: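 Phosphorylation of a Fam-labeled S6-derived peptide (200 nM) at 10 μM ATP by 1.5 nM kinase ran 2 hours at room temperature in HEPES pH 7.6 buffer containing MgCl2, DTT, Triton X-100, BSA and EDTA. Detection used IMAP progressive binding with Tb donor TR-FRET after overnight incubation.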

T1 sequence (Q04759 whole entry): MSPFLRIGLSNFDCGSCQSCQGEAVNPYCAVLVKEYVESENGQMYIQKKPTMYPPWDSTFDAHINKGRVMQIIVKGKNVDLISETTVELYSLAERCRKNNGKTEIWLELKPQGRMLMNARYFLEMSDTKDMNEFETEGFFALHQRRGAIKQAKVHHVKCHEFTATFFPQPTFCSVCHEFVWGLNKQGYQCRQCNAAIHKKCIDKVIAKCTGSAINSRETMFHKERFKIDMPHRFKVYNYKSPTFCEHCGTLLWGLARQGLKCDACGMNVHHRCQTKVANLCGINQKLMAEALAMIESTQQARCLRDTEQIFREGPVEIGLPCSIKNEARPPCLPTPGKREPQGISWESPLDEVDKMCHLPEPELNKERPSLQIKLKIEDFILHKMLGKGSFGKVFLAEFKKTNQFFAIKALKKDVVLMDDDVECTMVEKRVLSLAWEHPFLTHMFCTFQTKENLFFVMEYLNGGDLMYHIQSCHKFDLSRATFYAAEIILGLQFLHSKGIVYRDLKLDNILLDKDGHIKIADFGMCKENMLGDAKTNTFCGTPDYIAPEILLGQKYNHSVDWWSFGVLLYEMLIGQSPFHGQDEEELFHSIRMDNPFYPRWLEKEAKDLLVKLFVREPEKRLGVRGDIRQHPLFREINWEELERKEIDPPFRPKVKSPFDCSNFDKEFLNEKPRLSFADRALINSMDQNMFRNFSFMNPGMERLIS
T2 sequence (Q05655 whole entry): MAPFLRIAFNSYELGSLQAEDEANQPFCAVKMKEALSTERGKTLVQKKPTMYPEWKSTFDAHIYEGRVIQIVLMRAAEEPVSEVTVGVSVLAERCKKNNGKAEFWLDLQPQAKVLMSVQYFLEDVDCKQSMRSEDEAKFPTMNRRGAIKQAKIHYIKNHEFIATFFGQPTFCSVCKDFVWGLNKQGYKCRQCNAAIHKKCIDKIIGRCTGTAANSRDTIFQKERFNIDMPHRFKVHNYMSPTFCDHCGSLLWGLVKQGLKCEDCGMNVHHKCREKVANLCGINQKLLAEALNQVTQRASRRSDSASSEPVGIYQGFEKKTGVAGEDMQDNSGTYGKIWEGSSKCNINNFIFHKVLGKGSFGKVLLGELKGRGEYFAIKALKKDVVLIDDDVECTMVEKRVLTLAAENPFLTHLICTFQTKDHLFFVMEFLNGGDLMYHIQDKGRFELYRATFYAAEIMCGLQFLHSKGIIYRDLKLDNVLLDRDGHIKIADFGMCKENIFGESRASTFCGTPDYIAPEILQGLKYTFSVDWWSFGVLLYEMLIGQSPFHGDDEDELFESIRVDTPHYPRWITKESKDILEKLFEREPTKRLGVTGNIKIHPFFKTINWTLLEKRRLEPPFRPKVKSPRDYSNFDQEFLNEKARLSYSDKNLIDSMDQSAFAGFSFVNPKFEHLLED

| SMILES | pIC50 (His-PKC-theta) | Sel. Level (ratio of IC50 PKC-delta/IC50 PKC-theta) (PKC delta) |
| --- | --- | --- |
| Cc1ncccc1CCNc1ncc(C#N)c(N[C@@H]2CC[C@H](O)C(C)(C)C2)n1 [Cmpd 258] | 6.10 to 7.00 | F (selectivity of between 20- and 100-fold (selectivity level F)) |
| CC1(C)[C@@H](c2nc[nH]n2)C[C@H]1Nc1nc(NCCC2C(=O)Nc3ccccc32)ncc1C#N (stereo partly shown) [Cmpd 317] | > 7.00 | E (selectivity (Sel. Level=ratio of IC50 PKC-delta/IC50 PKC-theta) of >100-fold (selectivity level E)) |
| CC1(C)[C@@H](O)C[C@H]1Nc1nc(NCCc2cccc3cc[nH]c23)ncc1C#N [Cmpd 229] | 5.70 to 6.10 | G (selectivity between 5- and 20-fold (selectivity level G)) |
| Cc1nccnc1CCNc1ncc(C#N)c(N[C@H]2CC[C@@H](C(N)=O)CC2)n1 [Cmpd 321] | 5.00 to 5.70 | H (selectivity level of 5-fold or less (selectivity level H)) |
| CC1(C)[C@H](O)CCC[C@@H]1Nc1nc(NCCC2C(=O)Nc3ccccc32)ncc1C#N (stereo partly shown) [Cmpd 307] | 6.10 to 7.00 | G (selectivity between 5- and 20-fold (selectivity level G)) |
| COc1cccc(CCNc2ncc(C#N)c(N[C@@H]3CC[C@H](O)C(C)(C)C3)n2)n1 [Cmpd 215] | 5.70 to 6.10 | G (selectivity between 5- and 20-fold (selectivity level G)) |
| Cc1cccc2c1NC(=O)C2CCNc1ncc(C#N)c(N[C@@H]2CC[C@H](O)C(C)(C)C2)n1 (stereo partly shown) [Cmpd 248] | > 7.00 | F (selectivity of between 20- and 100-fold (selectivity level F)) |
| Cn1cc(CCNc2ncc(C#N)c(N[C@@H]3CC[C@H](O)C(C)(C)C3)n2)c2ccccc21 [Cmpd 292] | > 7.00 | F (selectivity of between 20- and 100-fold (selectivity level F)) |
| CC1(C)C[C@H](Nc2nc(NCCn3cc(C#N)cn3)ncc2C#N)CC[C@@H]1O [Cmpd 213] | 5.00 to 5.70 | H (selectivity level of 5-fold or less (selectivity level H)) |
| COc1cccc(CCNc2ncc(C#N)c(N[C@@H]3CC(O)C3(C)C)n2)n1 (stereo partly shown) [Cmpd 227] | 5.70 to 6.10 | G (selectivity between 5- and 20-fold (selectivity level G)) |
| CC(F)(F)COc1ncncc1CNc1ncc(C#N)c(N[C@@H]2CCC[C@H](O)C2(C)C)n1 [Cmpd 299] | > 7.00 | E (selectivity (Sel. Level=ratio of IC50 PKC-delta/IC50 PKC-theta) of >100-fold (selectivity level E)) |
| CC(F)(F)COc1ncncc1CNc1ncc(C#N)c(N[C@H]2CC3(C2)C[C@](C)(O)C3)n1 (stereo partly shown) [Cmpd 295] | 6.10 to 7.00 | F (selectivity of between 20- and 100-fold (selectivity level F)) |
| CC(F)(F)COc1ncncc1CNc1ncc(C#N)c(N[C@@H]2C[C@](C)(O)C2(C)C)n1 [Cmpd 333] | > 7.00 | E (selectivity (Sel. Level=ratio of IC50 PKC-delta/IC50 PKC-theta) of >100-fold (selectivity level E)) |
| CC(F)(F)COc1ncncc1CNc1ncc(C#N)c(N[C@@H]2CCC[C@@](C)(O)C2)n1 [Cmpd 286] | 6.10 to 7.00 | F (selectivity of between 20- and 100-fold (selectivity level F)) |
| CC1(C)C[C@H](Nc2nc(NCCn3cccc3)ncc2C#N)CC[C@@H]1O [Cmpd 201] | 6.10 to 7.00 | F (selectivity of between 20- and 100-fold (selectivity level F)) |
| CC1(C)C[C@H](Nc2nc(NCCc3cncc(Cl)c3)ncc2C#N)CC[C@@H]1O [Cmpd 276] | 6.10 to 7.00 | F (selectivity of between 20- and 100-fold (selectivity level F)) |
| Cc1cc2ccccc2n1CCNc1ncc(C#N)c(N[C@@H]2CC[C@H](O)C(C)(C)C2)n1 [Cmpd 206] | 6.10 to 7.00 | F (selectivity of between 20- and 100-fold (selectivity level F)) |
| COCc1noc(CCNc2ncc(C#N)c(N[C@@H]3CC[C@H](O)C(C)(C)C3)n2)n1 [Cmpd 199] | 5.00 to 5.70 | H (selectivity level of 5-fold or less (selectivity level H)) |
| CC1(C)[C@@H](C(N)=O)C[C@H]1Nc1nc(NCCC2C(=O)Nc3ccccc32)ncc1C#N (stereo partly shown) [Cmpd 318] | > 7.00 | E (selectivity (Sel. Level=ratio of IC50 PKC-delta/IC50 PKC-theta) of >100-fold (selectivity level E)) |

| SMILES | pIC50 (His-PKC-theta) | Sel. Level (ratio of IC50 PKC-delta/IC50 PKC-theta) (PKC delta) |
| --- | --- | --- |
| CC1(C)[C@@H](O)C[C@H]1Nc1nc(NCCC2CNc3cc(Cl)ccc32)ncc1C#N (stereo partly shown) [Cmpd 263] | 6.10 to 7.00 | G (selectivity between 5- and 20-fold (selectivity level G)) |
| CC1(C)[C@@H](O)C[C@H]1Nc1nc(NCCc2cc3cc(C#N)ccc3[nH]2)ncc1C#N [Cmpd 264] | 6.10 to 7.00 | G (selectivity between 5- and 20-fold (selectivity level G)) |
| Cc1[nH]c2cc(Cl)cc(Cl)c2c1CCNc1ncc(C#N)c(N[C@@H]2CC[C@H](O)C(C)(C)C2)n1 [Cmpd 254] | 6.10 to 7.00 | G (selectivity between 5- and 20-fold (selectivity level G)) |
| CC1(C)C[C@H](Nc2nc(NCCc3c[nH]c4ncccc34)ncc2C#N)CC[C@@H]1O [Cmpd 204] | 6.10 to 7.00 | F (selectivity of between 20- and 100-fold (selectivity level F)) |
| CC1(C)C[C@H](Nc2nc(NCCc3cc(C(F)(F)F)ccn3)ncc2C#N)CC[C@@H]1O [Cmpd 326] | 6.10 to 7.00 | G (selectivity between 5- and 20-fold (selectivity level G)) |
| CC1(C)[C@@H](O)C[C@H]1Nc1nc(NCCc2cc3ccccc3[nH]2)ncc1C#N [Cmpd 237] | 5.70 to 6.10 | G (selectivity between 5- and 20-fold (selectivity level G)) |
| CC1(C)[C@@H](O)C[C@H]1Nc1nc(NCCc2c[nH]c3cc(F)ccc23)ncc1C#N [Cmpd 265] | 6.10 to 7.00 | G (selectivity between 5- and 20-fold (selectivity level G)) |
| Cc1ncccc1CCNc1ncc(C#N)c(N[C@H]2CC[C@@H](C(N)=O)CC2)n1 [Cmpd 322] | 6.10 to 7.00 | G (selectivity between 5- and 20-fold (selectivity level G)) |
| CC1(C)C[C@H](Nc2nc(NCCc3cc4cc(C#N)ccc4[nH]3)ncc2C#N)CC[C@@H]1O [Cmpd 251] | 6.10 to 7.00 | G (selectivity between 5- and 20-fold (selectivity level G)) |
| CC1(C)[C@@H](O)CCC[C@H]1Nc1nc(NCCC2C(=O)Nc3cc(F)ccc32)ncc1C#N (stereo partly shown) [Cmpd 312] | 6.10 to 7.00 | G (selectivity between 5- and 20-fold (selectivity level G)) |
| CC1(C)[C@@H](O)C[C@H]1Nc1nc(NCCC2C(=O)Nc3ccccc32)ncc1C#N (stereo partly shown) [Cmpd 259] | > 7.00 | E (selectivity (Sel. Level=ratio of IC50 PKC-delta/IC50 PKC-theta) of >100-fold (selectivity level E)) |
| CC1(C)[C@@H](O)C[C@H]1Nc1nc(NCCc2nc3ccccc3o2)ncc1C#N [Cmpd 242] | 5.00 to 5.70 | H (selectivity level of 5-fold or less (selectivity level H)) |
| CCOc1cccc(CCNc2ncc(C#N)c(N[C@@H]3C[C@H](O)C3(C)C)n2)n1 [Cmpd 267] | 5.70 to 6.10 | G (selectivity between 5- and 20-fold (selectivity level G)) |
| CC1(C)C[C@H](Nc2nc(NCCc3ccnc(C(F)(F)F)c3)ncc2C#N)CC[C@@H]1O [Cmpd 272] | 6.10 to 7.00 | G (selectivity between 5- and 20-fold (selectivity level G)) |
| COCc1noc(CCNc2ncc(C#N)c(N[C@@H]3CC(O)C3(C)C)n2)n1 (stereo partly shown) [Cmpd 236] | 5.00 to 5.70 | H (selectivity level of 5-fold or less (selectivity level H)) |
| Cc1cccn1CCNc1ncc(C#N)c(N[C@H]2CC[C@@H](C(N)=O)CC2)n1 [Cmpd 324] | 5.70 to 6.10 | G (selectivity between 5- and 20-fold (selectivity level G)) |
| CC1(C)[C@@H](O)C[C@H]1Nc1nc(NCCc2c[nH]c3ncccc23)ncc1C#N [Cmpd 241] | 5.70 to 6.10 | G (selectivity between 5- and 20-fold (selectivity level G)) |
| CC1(C)CC(Nc2nc(NCCc3c[nH]c4cccnc34)ncc2C#N)CC[C@@H]1O (stereo partly shown) [Cmpd 255] | 5.00 to 5.70 | H (selectivity level of 5-fold or less (selectivity level H)) |
| CC1(C)C[C@H](Nc2nc(NCCc3noc(C(F)(F)F)n3)ncc2C#N)CC[C@@H]1O [Cmpd 219] | 5.70 to 6.10 | G (selectivity between 5- and 20-fold (selectivity level G)) |
